Assay results from patent US20150105252A1, “SUBSTITUTED PYRAZOLES AS HERBICIDES” (E I DU PONT DE NEMOURS AND COMPANY, priority 2013, published 2015).

Experiments:
waterhemp = assay: Test C preemergence; format: in vivo, Amaranthus rudis
How it was run: (§1)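 Visual rating, 0–100 scale (0 no effect, 100 complete control), vs untreated controls after 13–15 d greenhouse. Pre: seeds in loam/sand, treated at sowing. Post: plants in peat-based mix, 1- to 4-leaf (2–18 cm). Solvent + surfactant formulation, non-phytotoxic.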

lambsquarters = assay: Test C preemergence; format: in vivo, Chenopodium album
How it was run: as §1

oilseed rape = assay: Test C postemergence; format: in vivo, Brassica napus; conditions: for Oilseed Rape plant response rating / Plant response rating, Oilseed Rape: postemergence; for Oilseed Rape plant response rating: 62 g ai/ha, scale 0 to 100
How it was run: as §1

nutsedge, yellow = assay: Test C preemergence; format: in vivo, Cyperus esculentus
How it was run: as §1

soybean = assay: Test C postemergence; format: in vivo, Glycine max; conditions: for Plant response rating, Soybean / Soybean plant response rating: postemergence; for Plant response rating, Soybean: 250 g ai/ha, scale 0 to 100 (0 no effect, 100 complete control); for Soybean plant response rating: 125 g ai/ha, scale 0 to 100, 0 no effect, 100 complete control
How it was run: as §1

corn = assay: Test C preemergence; format: in vivo, Zea mays
How it was run: as §1

kochia = assay: Test C postemergence; format: in vivo, Kochia scoparia; conditions: for Plant response rating (scale of 0 to 100 where 0 is no effect and 100 is complete control), Kochia: Postemergence, 31 g ai/ha, visually evaluated after 13 to 15 days; for Kochia plant response rating / Plant response rating, Kochia: postemergence; for Kochia plant response rating: 62 g ai/ha, scale 0 to 100
How it was run: as §1

velvetleaf [1] = assay: Test C preemergence; format: in vivo, Abutilon theophrasti
How it was run: as §1

wheat [2] = assay: Test A preemergence; format: in vivo, Triticum aestivum; conditions: preemergence; for Wheat plant response rating (0 to 100 scale): 125 g ai/ha, visual injury approx. 10 days after treatment; for Wheat plant response rating: 500 g ai/ha, visual injury after approx. 10 days, 0 to 100 scale (0 no effect, 100 complete control)
How it was run: (§2)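 Greenhouse test in loam soil/sand blend; compounds formulated in non-phytotoxic solvent with surfactant, applied as preemergence directed soil spray or postemergence to plants 2–10 cm tall at one- to two-leaf stage. Injury rated visually versus untreated controls after approximately 10 days on a 0 (no effect) to 100 (complete control) scale.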

wheat [3] = assay: Test A postemergence; format: in vivo, Triticum aestivum
How it was run: as §2

velvetleaf [4] = assay: Test C postemergence; format: in vivo, Abutilon theophrasti; conditions: for Plant response rating, Velvetleaf / Velvetleaf plant response rating: postemergence; for Plant response rating, Velvetleaf: 250 g ai/ha, scale 0 to 100 (0 no effect, 100 complete control); for Velvetleaf plant response rating: scale 0 to 100
How it was run: as §1

blackgrass = assay: Test C postemergence; format: in vivo, Alopecurus myosuroides; conditions: for Plant response rating (scale of 0 to 100 where 0 is no effect and 100 is complete control), Blackgrass: Postemergence, 31 g ai/ha, visually evaluated after 13 to 15 days; for Blackgrass plant response rating / Plant response rating, Blackgrass: postemergence; for Blackgrass plant response rating: 62 g ai/ha, scale 0 to 100
How it was run: as §1

barnyardgrass = assay: Test C postemergence; format: in vivo, Echinochloa crus-galli; conditions: for Plant response rating (scale of 0 to 100 where 0 is no effect and 100 is complete control), Barnyardgrass: Postemergence, 31 g ai/ha, visually evaluated after 13 to 15 days; for Barnyardgrass plant response rating / Plant response rating, Barnyardgrass: postemergence; for Barnyardgrass plant response rating: 62 g ai/ha, scale 0 to 100
How it was run: as §1

crabgrass, large = assay: Test A preemergence; format: in vivo, Digitaria sanguinalis; conditions: preemergence; for Crabgrass, Large plant response rating (0 to 100 scale): 125 g ai/ha, visual injury approx. 10 days after treatment; for Crabgrass, Large plant response rating: 500 g ai/ha, visual injury after approx. 10 days, 0 to 100 scale (0 no effect, 100 complete control)
How it was run: as §2

[5] = preemergence, 31 g ai/ha, visual rating, scale 0 to 100 (0 no effect, 100 complete control), 13 to 15 days
[6] = preemergence, 62 g ai/ha, scale 0 to 100 (0 no effect, 100 complete control), 13 to 15 days
[7] = preemergence, 125 g ai/ha, 13 to 15 days, scale 0 to 100, 0 = no effect, 100 = complete control
[8] = preemergence, 250 g ai/ha, scale 0 to 100, 0 is no effect, 100 is complete control
[9] = Postemergence, 31 g ai/ha, visually evaluated after 13 to 15 days
[10] = 250 g ai/ha, scale 0 to 100 (0 no effect, 100 complete control)
[11] = 125 g ai/ha, scale 0 to 100, 0 no effect, 100 complete control
[12] = Postemergence, 500 g ai/ha, 0 to 100 scale (0 no effect, 100 complete control)
[13] = postemergence, 125 g ai/ha, about 10 days, visual rating on 0 to 100 scale (0 no effect, 100 complete control)
[14] = Preemergence, rate head not shown (block before 16 g ai/ha), scale 0 to 100

Compound: O=C(NC1CC1)c1cc(CCCl)n(Cc2ccnc(C(F)(F)F)c2)n1 [Compound 144]
- Waterhemp plant response rating (waterhemp; [5]): 98
- Waterhemp plant response rating (waterhemp; [6]): 98
- Plant response rating, Waterhemp (waterhemp; [7]): 100
- Waterhemp plant response rating (waterhemp; [8]): 100
- Lambsquarters plant response rating (lambsquarters; [5]): 95
- Lambsquarters plant response rating (lambsquarters; [6]): 98
- Plant response rating, Lambsquarters (lambsquarters; [7]): 98
- Lambsquarters plant response rating (lambsquarters; [8]): 98
- Plant response rating (scale of 0 to 100 where 0 is no effect and 100 is complete control), Oilseed Rape (oilseed rape; [9]): 50
- Oilseed Rape plant response rating (oilseed rape): 50
- Plant response rating, Oilseed Rape (oilseed rape; [10]): 65
- Plant response rating, Oilseed Rape (oilseed rape; [11]): 60
- Nutsedge, Yellow plant response rating (nutsedge, yellow; [5]): 0
- Nutsedge, Yellow plant response rating (nutsedge, yellow; [6]): 45
- Plant response rating, Nutsedge, Yellow (nutsedge, yellow; [7]): 65
- Nutsedge, Yellow plant response rating (nutsedge, yellow; [8]): 90
- Plant response rating (scale of 0 to 100 where 0 is no effect and 100 is complete control), Soybean (soybean; [9]): 35
- Plant response rating, Soybean (soybean): 95
- Soybean plant response rating (soybean): 75
- Corn plant response rating (corn; [5]): 5
- Corn plant response rating (corn; [6]): 20
- Plant response rating, Corn (corn; [7]): 60
- Corn plant response rating (corn; [8]): 85
- Plant response rating (scale of 0 to 100 where 0 is no effect and 100 is complete control), Kochia (kochia): 75
- Kochia plant response rating (kochia): 85
- Plant response rating, Kochia (kochia; [10]): 95
- Plant response rating, Kochia (kochia; [11]): 95
- Velvetleaf plant response rating (velvetleaf [1]; [5]): 15
- Velvetleaf plant response rating (velvetleaf [1]; [6]): 75
- Plant response rating, Velvetleaf (velvetleaf [1]; [7]): 100
- Velvetleaf plant response rating (velvetleaf [1]; [8]): 100
- Wheat plant response rating (0 to 100 scale) (wheat [2]): 50
- Wheat plant response rating (wheat [2]): 100
- Wheat plant response rating (wheat [3]; [12]): 90
- Wheat plant response rating (wheat [3]; [13]): 50
- Plant response rating (scale of 0 to 100 where 0 is no effect and 100 is complete control), Velvetleaf (velvetleaf [4]; [9]): 15
- Plant response rating, Velvetleaf (velvetleaf [4]): 50
- Velvetleaf plant response rating (velvetleaf [4]): 35
- Plant response rating (scale of 0 to 100 where 0 is no effect and 100 is complete control), Blackgrass (blackgrass): 20
- Blackgrass plant response rating (blackgrass): 5
- Plant response rating, Blackgrass (blackgrass; [10]): 35
- Plant response rating, Blackgrass (blackgrass; [11]): 30
- Plant response rating (scale of 0 to 100 where 0 is no effect and 100 is complete control), Barnyardgrass (barnyardgrass): 10
- Barnyardgrass plant response rating (barnyardgrass): 15
- Plant response rating, Barnyardgrass (barnyardgrass; [10]): 15
- Plant response rating, Barnyardgrass (barnyardgrass; [11]): 10
- Crabgrass, Large plant response rating (0 to 100 scale) (crabgrass, large): 100
- Crabgrass, Large plant response rating (crabgrass, large): 100

Compound: CCc1cc(C(=O)NC2CC2)nn1Cc1ccnc(Br)c1 [Compound 220]
- Plant response rating, Waterhemp (waterhemp; [14]): 75
- Waterhemp plant response rating (waterhemp; [6]): 95
- Plant response rating, Waterhemp (waterhemp; [7]): 100
- Waterhemp plant response rating (waterhemp; [8]): 100
- Plant response rating, Lambsquarters (lambsquarters; [14]): 60
- Lambsquarters plant response rating (lambsquarters; [6]): 98
- Plant response rating, Lambsquarters (lambsquarters; [7]): 100
- Lambsquarters plant response rating (lambsquarters; [8]): 100
- Oilseed Rape plant response rating (oilseed rape): 5
- Plant response rating, Oilseed Rape (oilseed rape; [10]): 40
- Plant response rating, Oilseed Rape (oilseed rape; [11]): 30
- Plant response rating, Nutsedge, Yellow (nutsedge, yellow; [14]): 0
- Nutsedge, Yellow plant response rating (nutsedge, yellow; [6]): 0
- Plant response rating, Nutsedge, Yellow (nutsedge, yellow; [7]): 5
- Nutsedge, Yellow plant response rating (nutsedge, yellow; [8]): 5
- Plant response rating, Soybean (soybean): 75
- Soybean plant response rating (soybean): 30
- Plant response rating, Corn (corn; Preemergence, rate head not shown (block before 16 g ai/ha), scale 0 to 100, 100 is complete control): 0
- Corn plant response rating (corn; [6]): 0
- Plant response rating, Corn (corn; [7]): 5
- Corn plant response rating (corn; [8]): 40
- Plant response rating (scale of 0 to 100 where 0 is no effect and 100 is complete control), Kochia (kochia): 80
- Kochia plant response rating (kochia): 85
- Plant response rating, Kochia (kochia; [10]): 90
- Plant response rating, Kochia (kochia; [11]): 90
- Plant response rating, Velvetleaf (velvetleaf [1]; [14]): 5
- Velvetleaf plant response rating (velvetleaf [1]; [6]): 20
- Plant response rating, Velvetleaf (velvetleaf [1]; [7]): 75
- Velvetleaf plant response rating (velvetleaf [1]; [8]): 100
- Wheat plant response rating (0 to 100 scale) (wheat [2]): 0
- Wheat plant response rating (wheat [3]; Postemergence, 125 g ai/ha, 0 to 100 scale, 0 no effect, 100 complete control): 0
- Wheat plant response rating (wheat [3]; [12]): 90
- Plant response rating, Velvetleaf (velvetleaf [4]): 40
- Velvetleaf plant response rating (velvetleaf [4]): 45
- Plant response rating (scale of 0 to 100 where 0 is no effect and 100 is complete control), Blackgrass (blackgrass): 5
- Blackgrass plant response rating (blackgrass): 5
- Plant response rating, Blackgrass (blackgrass; [10]): 20
- Plant response rating, Blackgrass (blackgrass; [11]): 5
- Plant response rating (scale of 0 to 100 where 0 is no effect and 100 is complete control), Barnyardgrass (barnyardgrass): 0
- Barnyardgrass plant response rating (barnyardgrass): 0
- Plant response rating, Barnyardgrass (barnyardgrass; [10]): 15
- Plant response rating, Barnyardgrass (barnyardgrass; [11]): 10
- Crabgrass, Large plant response rating (0 to 100 scale) (crabgrass, large): 100
- Crabgrass, Large plant response rating (crabgrass, large): 100

Compound: CCOc1cc(C(=O)NOC(C)C)nn1Cc1ccnc(C(F)(F)F)c1 [Compound 153]
- Waterhemp plant response rating (waterhemp; [5]): 60
- Waterhemp plant response rating (waterhemp; [6]): 100
- Plant response rating, Waterhemp (waterhemp; [7]): 100
- Waterhemp plant response rating (waterhemp; [8]): 100
- Lambsquarters plant response rating (lambsquarters; [5]): 85
- Lambsquarters plant response rating (lambsquarters; [6]): 98
- Plant response rating, Lambsquarters (lambsquarters; [7]): 98
- Lambsquarters plant response rating (lambsquarters; [8]): 100
- Oilseed Rape plant response rating (oilseed rape): 25
- Plant response rating, Oilseed Rape (oilseed rape; [10]): 45
- Plant response rating, Oilseed Rape (oilseed rape; [11]): 40
- Nutsedge, Yellow plant response rating (nutsedge, yellow; [5]): 20
- Nutsedge, Yellow plant response rating (nutsedge, yellow; [6]): 75
- Plant response rating, Nutsedge, Yellow (nutsedge, yellow; [7]): 85
- Nutsedge, Yellow plant response rating (nutsedge, yellow; [8]): 95
- Plant response rating, Soybean (soybean): 40
- Soybean plant response rating (soybean): 35
- Corn plant response rating (corn; [5]): 10
- Corn plant response rating (corn; [6]): 50
- Plant response rating, Corn (corn; [7]): 95
- Corn plant response rating (corn; [8]): 98
- Plant response rating (scale of 0 to 100 where 0 is no effect and 100 is complete control), Kochia (kochia): 50
- Kochia plant response rating (kochia): 70
- Plant response rating, Kochia (kochia; [10]): 90
- Plant response rating, Kochia (kochia; [11]): 85
- Velvetleaf plant response rating (velvetleaf [1]; [5]): 10
- Velvetleaf plant response rating (velvetleaf [1]; [6]): 60
- Plant response rating, Velvetleaf (velvetleaf [1]; [7]): 90
- Velvetleaf plant response rating (velvetleaf [1]; [8]): 100
- Wheat plant response rating (0 to 100 scale) (wheat [2]): 100
- Wheat plant response rating (wheat [2]): 100
- Wheat plant response rating (wheat [3]; [12]): 100
- Wheat plant response rating (wheat [3]; [13]): 90
- Plant response rating, Velvetleaf (velvetleaf [4]): 65
- Velvetleaf plant response rating (velvetleaf [4]): 30
- Plant response rating (scale of 0 to 100 where 0 is no effect and 100 is complete control), Blackgrass (blackgrass): 0
- Blackgrass plant response rating (blackgrass): 5
- Plant response rating, Blackgrass (blackgrass; [10]): 5
- Plant response rating, Blackgrass (blackgrass; [11]): 5
- Plant response rating (scale of 0 to 100 where 0 is no effect and 100 is complete control), Barnyardgrass (barnyardgrass): 5
- Barnyardgrass plant response rating (barnyardgrass): 10
- Plant response rating, Barnyardgrass (barnyardgrass; [10]): 15
- Plant response rating, Barnyardgrass (barnyardgrass; [11]): 10
- Crabgrass, Large plant response rating (0 to 100 scale) (crabgrass, large): 100
- Crabgrass, Large plant response rating (crabgrass, large): 100
